Residue numbers refer to the chain shown, from its start. Several values for one entry are separate records, joined by “and”; a condition that tells them apart may be missing. Equal entries are not always repeated.
Legend:
Nluc-A3AR WT = biological target: T1, Nluc-A3AR WT (Homo sapiens, UniProt P0DMS8); assay: biochemical; assay type: binding; conditions: WT, read-out: normalised XAC-630 binding
T1 construct: expressed in transfected cells; host or cells: HEK293a
Protocol: (§1) All experiments were performed in duplicate.
(§2) Data were expressed as the mean ± standard error. All binding and Trupath data were analysed using the nonlinear regression curve-fitting programme with Prism 10 (GraphPad, San Diego, CA, USA). For nanoBRET saturation binding experiments, specific binding was calculated by subtracting non-specific binding (defined as binding in the presence of 10 µM MRS1220) from total binding. Specific binding data in each experiment were then normalised to the maximal binding (Bmax) of WT and fit to a one-site specific binding equation: Y =Bmax*[X]/(Kd + [X]). For nanoBRET competition binding experiments, data were normalised to total and non-specific binding responses and fit to a one-site—Fit Ki equation. […] Significant differences vs WT were determined by one-way ANOVA with a Dunnett’s multiple comparison test.

Nluc-A3AR Y15A^1.35 = biological target: T2, Nluc-A3AR Y15A^1.35 (Homo sapiens, UniProt P0DMS8, Y15A); assay: biochemical; assay type: binding; conditions: Y15A; log[adenosine] -8; read-out: normalised XAC-630 binding
T2 construct: expressed in transfected cells; host or cells: HEK293a
Protocol: as §1
(§3) Data were expressed as the mean ± standard error. All binding and Trupath data were analysed using the nonlinear regression curve-fitting programme with Prism 10 (GraphPad, San Diego, CA, USA). For nanoBRET saturation binding experiments, specific binding was calculated by subtracting non-specific binding (defined as binding in the presence of 10 µM MRS1220) from total binding. Specific binding data in each experiment were then normalised to the maximal binding (Bmax) of WT and fit to a one-site specific binding equation: Y =Bmax*[X]/(Kd + [X]). For nanoBRET competition binding experiments, data were normalised to total and non-specific binding responses and fit to a one-site—Fit Ki equation. Trupath's experimental data was baseline-corrected to the initial four baseline reads and then adjusted to the buffer control response. The area under the curve (AUC) for each response was calculated and plotted with a non-linear regression curve (log[agonist] vs response, three-parameter model), using the equation: Y = Bottom + (Top–Bottom)/(1 + 10^((LogEC50-X))). Here, X represents the log dose of the agonist, Y is the BRET2 AUC response, Top and Bottom are the curve plateaus, and EC50 is the agonist concentration yielding a response halfway between the Bottom and Top values. […] The efficacy of the agonists (τA) was separately calculated using the Black–Leff operational model of agonism[79] using KA values from Table 2 and then corrected for receptor expression relative to WT using Bmax values from Table 1[80]. Significant differences vs WT were determined by one-way ANOVA with a Dunnett’s multiple comparison test.

Nluc-A3AR S73A^2.65 = biological target: T3, Nluc-A3AR S73A^2.65 (Homo sapiens, UniProt P0DMS8, S73A); assay: biochemical; assay type: binding; conditions: S73A, read-out: normalised XAC-630 binding
T3 construct: expressed in transfected cells; host or cells: HEK293a
Protocol: as §1, §2

Nluc-A3AR T94A^3.36 = biological target: T4, Nluc-A3AR T94A^3.36 (Homo sapiens, UniProt P0DMS8, T94A); assay: biochemical; assay type: binding; conditions: T94A, read-out: normalised XAC-630 binding
T4 construct: expressed in transfected cells; host or cells: HEK293a
Protocol: as §1, §3

Nluc-A3AR H95A^3.37 = biological target: T5, Nluc-A3AR H95A^3.37 (Homo sapiens, UniProt P0DMS8, H95A); assay: biochemical; assay type: binding; conditions: H95A, read-out: normalised XAC-630 binding
T5 construct: expressed in transfected cells; host or cells: HEK293a
Protocol: as §1
(§4) Data were expressed as the mean ± standard error. All binding and Trupath data were analysed using the nonlinear regression curve-fitting programme with Prism 10 (GraphPad, San Diego, CA, USA). For nanoBRET saturation binding experiments, specific binding was calculated by subtracting non-specific binding (defined as binding in the presence of 10 µM MRS1220) from total binding. Specific binding data in each experiment were then normalised to the maximal binding (Bmax) of WT and fit to a one-site specific binding equation: Y =Bmax*[X]/(Kd + [X]). For nanoBRET competition binding experiments, data were normalised to total and non-specific binding responses and fit to a one-site—Fit Ki equation. Trupath's experimental data was baseline-corrected to the initial four baseline reads and then adjusted to the buffer control response. The area under the curve (AUC) for each response was calculated and plotted with a non-linear regression curve (log[agonist] vs response, three-parameter model), using the equation: Y = Bottom + (Top–Bottom)/(1 + 10^((LogEC50-X))). Here, X represents the log dose of the agonist, Y is the BRET2 AUC response, Top and Bottom are the curve plateaus, and EC50 is the agonist concentration yielding a response halfway between the Bottom and Top values. […] Significant differences vs WT were determined by one-way ANOVA with a Dunnett’s multiple comparison test. Significance levels are indicated as follows: P ≤ 0.0001****, P = 0.0001–0.001***, P = 0.001–0.01**, and P = 0.01–0.05*.

Nluc-A3AR H95F^3.37 = biological target: T6, Nluc-A3AR H95F^3.37 (Homo sapiens, UniProt P0DMS8, H95F); assay: biochemical; assay type: binding; conditions: H95F; log[adenosine] -8; read-out: normalised XAC-630 binding
T6 construct: expressed in transfected cells; host or cells: HEK293a
Protocol: as §1, §4

Nluc-A3AR V169E^45.53 = biological target: T7, Nluc-A3AR V169E^45.53 (Homo sapiens, UniProt P0DMS8, V169E); assay: biochemical; assay type: binding; conditions: V169E, read-out: normalised XAC-630 binding
T7 construct: expressed in transfected cells; host or cells: HEK293a
Protocol: as §1, §4

Nluc-A3AR M174A^5.35 = biological target: T8, Nluc-A3AR M174A^5.35 (Homo sapiens, UniProt P0DMS8, M174A); assay: biochemical; assay type: binding; conditions: M174A, read-out: normalised XAC-630 binding
T8 construct: expressed in transfected cells; host or cells: HEK293a
Protocol: as §1, §3

Nluc-A3AR Y265A^7.36 = biological target: T9, Nluc-A3AR Y265A^7.36 (Homo sapiens, UniProt P0DMS8, Y265A); assay: biochemical; assay type: binding; conditions: Y265A, read-out: normalised XAC-630 binding
T9 construct: expressed in transfected cells; host or cells: HEK293a
Protocol: as §1, §3

Nluc-A3AR S271A^7.42 = biological target: T10, Nluc-A3AR S271A^7.42 (Homo sapiens, UniProt P0DMS8, S271A); assay: biochemical; assay type: binding; conditions: S271A, read-out: normalised XAC-630 binding
T10 construct: expressed in transfected cells; host or cells: HEK293a
Protocol: as §1, §2

A3AR WT = biological target: T11, A3AR WT (Homo sapiens, UniProt P0DMS8); assay: Gαi1 activation, TruPath BRET assay in HEK293a cells; assay type: cell-based
T11 construct: expressed in transfected cells; host or cells: HEK293a
T11 sequence (P0DMS8 1-318): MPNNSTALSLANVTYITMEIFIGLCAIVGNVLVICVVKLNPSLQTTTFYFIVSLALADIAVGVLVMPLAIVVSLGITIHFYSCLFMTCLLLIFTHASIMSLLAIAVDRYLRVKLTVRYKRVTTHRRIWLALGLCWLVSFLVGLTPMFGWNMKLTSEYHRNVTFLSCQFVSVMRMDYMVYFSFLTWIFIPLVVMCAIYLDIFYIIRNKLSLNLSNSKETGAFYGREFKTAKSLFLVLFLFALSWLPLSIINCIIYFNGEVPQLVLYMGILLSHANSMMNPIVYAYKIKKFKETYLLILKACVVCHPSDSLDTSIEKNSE
Protocol: (§5) PEI was added at a 6:1 PEI-to-DNA ratio. Two days post-transfection, plates were washed twice with BRET buffer (HBSS with 10 mM HEPES, pH 7.4). After a 30-min incubation at 37 °C, plates were placed in a PHERAstar plate reader at 37 °C, and four baseline readings were taken using BRET2 filters at 410 ± 80 nm and 515 ± 30 nm. […] BRET2 ratios were calculated as the ratio of GFP2 emission (515 ± 30 nm) to RLuc8 emission (410 ± 80 nm).
(§6) Data were expressed as the mean ± standard error. All binding and Trupath data were analysed using the nonlinear regression curve-fitting programme with Prism 10 (GraphPad, San Diego, CA, USA). For nanoBRET saturation binding experiments, specific binding was calculated by subtracting non-specific binding (defined as binding in the presence of 10 µM MRS1220) from total binding. Specific binding data in each experiment were then normalised to the maximal binding (Bmax) of WT and fit to a one-site specific binding equation: Y =Bmax*[X]/(Kd + [X]). For nanoBRET competition binding experiments, data were normalised to total and non-specific binding responses and fit to a one-site—Fit Ki equation. Trupath's experimental data was baseline-corrected to the initial four baseline reads and then adjusted to the buffer control response. The area under the curve (AUC) for each response was calculated and plotted with a non-linear regression curve (log[agonist] vs response, three-parameter model), using the equation: Y = Bottom + (Top–Bottom)/(1 + 10^((LogEC50-X))). Here, X represents the log dose of the agonist, Y is the BRET2 AUC response, Top and Bottom are the curve plateaus, and EC50 is the agonist concentration yielding a response halfway between the Bottom and Top values. To determine efficacy values. The efficacy of the agonists (τA) was separately calculated using the Black–Leff operational model of agonism[79] using KA values from Table 2 and then corrected for receptor expression relative to WT using Bmax values from Table 1[80]. Significant differences vs WT were determined by one-way ANOVA with a Dunnett’s multiple comparison test. Significance levels are indicated as follows: P ≤ 0.0001****, P = 0.0001–0.001***, P = 0.001–0.01**, and P = 0.01–0.05*.

A3AR Y15A^1.35 = biological target: T12, A3AR Y15A^1.35 (Homo sapiens, UniProt P0DMS8, Y15A); assay: as above; assay type: cell-based
T12 construct: expressed in transfected cells; host or cells: HEK293a
T12 sequence (P0DMS8 1-318 Y15A): T11 sequence (P0DMS8 1-318) with Y15A
Protocol: as §5, §6

A3AR S73A^2.65 = biological target: T13, A3AR S73A^2.65 (Homo sapiens, UniProt P0DMS8, S73A); assay: as above; assay type: cell-based
T13 construct: expressed in transfected cells; host or cells: HEK293a
Protocol: (§7) Two days post-transfection, plates were washed twice with BRET buffer (HBSS with 10 mM HEPES, pH 7.4). After a 30-min incubation at 37 °C, plates were placed in a PHERAstar plate reader at 37 °C, and four baseline readings were taken using BRET2 filters at 410 ± 80 nm and 515 ± 30 nm. […] BRET2 ratios were calculated as the ratio of GFP2 emission (515 ± 30 nm) to RLuc8 emission (410 ± 80 nm).
(§8) Data were expressed as the mean ± standard error. All binding and Trupath data were analysed using the nonlinear regression curve-fitting programme with Prism 10 (GraphPad, San Diego, CA, USA). […] Trupath's experimental data was baseline-corrected to the initial four baseline reads and then adjusted to the buffer control response. The area under the curve (AUC) for each response was calculated and plotted with a non-linear regression curve (log[agonist] vs response, three-parameter model), using the equation: Y = Bottom + (Top–Bottom)/(1 + 10^((LogEC50-X))). Here, X represents the log dose of the agonist, Y is the BRET2 AUC response, Top and Bottom are the curve plateaus, and EC50 is the agonist concentration yielding a response halfway between the Bottom and Top values. […] Significant differences vs WT were determined by one-way ANOVA with a Dunnett’s multiple comparison test.

A3AR M174A^5.35 = biological target: T14, A3AR M174A^5.35 (Homo sapiens, UniProt P0DMS8, M174A); assay: as above; assay type: cell-based
T14 construct: expressed in transfected cells; host or cells: HEK293a
Protocol: as §7, §8

A3AR Y265A^7.36 = biological target: T15, A3AR Y265A^7.36 (Homo sapiens, UniProt P0DMS8, Y265A); assay: as above; assay type: cell-based
T15 construct: expressed in transfected cells; host or cells: HEK293a
Protocol: PEI was added at a 6:1 PEI-to-DNA ratio.
Data were expressed as the mean ± standard error. All binding and Trupath data were analysed using the nonlinear regression curve-fitting programme with Prism 10 (GraphPad, San Diego, CA, USA). For nanoBRET saturation binding experiments, specific binding was calculated by subtracting non-specific binding (defined as binding in the presence of 10 µM MRS1220) from total binding. Specific binding data in each experiment were then normalised to the maximal binding (Bmax) of WT and fit to a one-site specific binding equation: Y =Bmax*[X]/(Kd + [X]). For nanoBRET competition binding experiments, data were normalised to total and non-specific binding responses and fit to a one-site—Fit Ki equation. Trupath's experimental data was baseline-corrected to the initial four baseline reads and then adjusted to the buffer control response. The area under the curve (AUC) for each response was calculated and plotted with a non-linear regression curve (log[agonist] vs response, three-parameter model), using the equation: Y = Bottom + (Top–Bottom)/(1 + 10^((LogEC50-X))). […] Significant differences vs WT were determined by one-way ANOVA with a Dunnett’s multiple comparison test. […]

A3AR S271A^7.42 = A3AR S271A^7.42 (Homo sapiens, UniProt P0DMS8, S271A); assay: as above
A3AR S271A^7.42, sequence (P0DMS8 whole entry S271A): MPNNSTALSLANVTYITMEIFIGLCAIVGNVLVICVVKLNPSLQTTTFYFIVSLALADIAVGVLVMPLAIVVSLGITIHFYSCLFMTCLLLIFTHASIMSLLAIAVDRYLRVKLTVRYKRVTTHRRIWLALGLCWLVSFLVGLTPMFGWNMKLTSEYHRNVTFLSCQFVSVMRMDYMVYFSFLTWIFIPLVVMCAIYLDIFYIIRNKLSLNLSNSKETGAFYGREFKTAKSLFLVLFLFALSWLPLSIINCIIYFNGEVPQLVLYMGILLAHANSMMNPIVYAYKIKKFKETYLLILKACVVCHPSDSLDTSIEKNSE
Protocol: as §7, §8

T9 sequence (P0DMS8 whole entry Y265A): as the sequence (P0DMS8 whole entry S271A) above, with Y265A, A271S counted along it
T10 sequence (P0DMS8 whole entry S271A): as the sequence (P0DMS8 whole entry S271A) above
T7 sequence (P0DMS8 whole entry V169E): as the sequence (P0DMS8 whole entry S271A) above, with V169E, A271S counted along it
T5 sequence (P0DMS8 whole entry H95A): as the sequence (P0DMS8 whole entry S271A) above, with H95A, A271S counted along it
T3 sequence (P0DMS8 whole entry S73A): as the sequence (P0DMS8 whole entry S271A) above, with S73A, A271S counted along it
T4 sequence (P0DMS8 whole entry T94A): as the sequence (P0DMS8 whole entry S271A) above, with T94A, A271S counted along it
T15 sequence (P0DMS8 whole entry Y265A): as the sequence (P0DMS8 whole entry S271A) above, with Y265A, A271S counted along it
T13 sequence (P0DMS8 whole entry S73A): as the sequence (P0DMS8 whole entry S271A) above, with S73A, A271S counted along it
T14 sequence (P0DMS8 whole entry M174A): as the sequence (P0DMS8 whole entry S271A) above, with M174A, A271S counted along it
T8 sequence (P0DMS8 whole entry M174A): as the sequence (P0DMS8 whole entry S271A) above, with M174A, A271S counted along it
T6 sequence (P0DMS8 whole entry H95F): as the sequence (P0DMS8 whole entry S271A) above, with H95F, A271S counted along it
T2 sequence (P0DMS8 whole entry Y15A): as the sequence (P0DMS8 whole entry S271A) above, with Y15A, A271S counted along it

Compound `Nc1ncnc2c1ncn2[C@@H]1O[C@H](CO)[C@@H](O)[C@H]1O` [Adenosine, adenosine] has a remaining activity at 1 µM (Nluc-A3AR WT; log[adenosine] -6) of 103%, a remaining activity at 0.1 µM (Nluc-A3AR WT; log[adenosine] -7) of 102% and a remaining activity at 0.01 µM (Nluc-A3AR WT; log[adenosine] -8) of 100%. It also gave a remaining activity at 0.01 µM (Nluc-A3AR Y15A^1.35) of 100%, a remaining activity at 10 µM (Nluc-A3AR S73A^2.65; log[adenosine] -5) of 82.6% and a remaining activity at 1 µM (Nluc-A3AR S73A^2.65; log[adenosine] -6) of 100%. It also gave a remaining activity at 0.1 µM (Nluc-A3AR S73A^2.65; log[adenosine] -7) of 100%, a remaining activity at 0.01 µM (Nluc-A3AR S73A^2.65; log[adenosine] -8) of 100% and a remaining activity at 1 µM (Nluc-A3AR T94A^3.36; log[adenosine] -6) of 100%. It also gave a remaining activity at 0.1 µM (Nluc-A3AR T94A^3.36; log[adenosine] -7) of 103%, a remaining activity at 0.01 µM (Nluc-A3AR T94A^3.36; log[adenosine] -8) of 100% and a remaining activity at 1000 µM (Nluc-A3AR H95A^3.37; log[adenosine] -3) of 24%. It also gave a remaining activity at 100 µM (Nluc-A3AR H95A^3.37; log[adenosine] -4) of 82.5%, a remaining activity at 10 µM (Nluc-A3AR H95A^3.37; log[adenosine] -5) of 97.8% and a remaining activity at 1 µM (Nluc-A3AR H95A^3.37; log[adenosine] -6) of 105%. For the same compound, the remaining activity at 0.1 µM (Nluc-A3AR H95A^3.37; log[adenosine] -7) was 95.8%, the remaining activity at 0.01 µM (Nluc-A3AR H95A^3.37; log[adenosine] -8) was 100% and the remaining activity at 0.01 µM (Nluc-A3AR H95F^3.37) was 100%. The remaining activity at 100 µM (Nluc-A3AR V169E^45.53; log[adenosine] -4) was 37.3%, the remaining activity at 10 µM (Nluc-A3AR V169E^45.53; log[adenosine] -5) was 78.7% and the remaining activity at 1 µM (Nluc-A3AR V169E^45.53; log[adenosine] -6) was 98%. For the same compound, the remaining activity at 0.1 µM (Nluc-A3AR V169E^45.53; log[adenosine] -7) was 95.5%, the remaining activity at 0.01 µM (Nluc-A3AR V169E^45.53; log[adenosine] -8) was 100% and the remaining activity at 1 µM (Nluc-A3AR M174A^5.35; log[adenosine] -6) was 100%. The remaining activity at 0.01 µM (Nluc-A3AR M174A^5.35; log[adenosine] -8) was 101%, the remaining activity at 100 µM (Nluc-A3AR Y265A^7.36; log[adenosine] -4) was 69.6% and the remaining activity at 10 µM (Nluc-A3AR Y265A^7.36; log[adenosine] -5) was 94.1%. The remaining activity at 1 µM (Nluc-A3AR Y265A^7.36; log[adenosine] -6) was 97.4%, the remaining activity at 0.1 µM (Nluc-A3AR Y265A^7.36; log[adenosine] -7) was 99.2% and the remaining activity at 0.01 µM (Nluc-A3AR Y265A^7.36; log[adenosine] -8) was 100%. It also gave a remaining activity at 1000 µM (Nluc-A3AR S271A^7.42; log[adenosine] -3) of 90.4%, a remaining activity at 100 µM (Nluc-A3AR S271A^7.42; log[adenosine] -4) of 102% and a remaining activity at 10 µM (Nluc-A3AR S271A^7.42; log[adenosine] -5) of 100%. The remaining activity at 1 µM (Nluc-A3AR S271A^7.42; log[adenosine] -6) was 104%, the remaining activity at 0.1 µM (Nluc-A3AR S271A^7.42; log[adenosine] -7) was 105% and the remaining activity at 0.01 µM (Nluc-A3AR S271A^7.42; log[adenosine] -8) was 100%. For the same compound, the “log τ (efficacy, operational model, corrected for receptor expression)” value (“log τ” for short) (A3AR WT) was 1.6 ± 0.2, the “∆∆BRET Emax” value (A3AR WT) was 0.89 ± 0.08 and the “Gαi1 activation response (Figure 7F), individual replicates” value (“Gαi1 activation response (Figure 7F)” below) (A3AR WT; log [agonist] -3) was 1.106 and 0.8834 and 0.9675. The “Gαi1 activation response (Figure 7F)” value (A3AR WT; log [agonist] -4) was 0.9524 and 0.7958 and 0.9068, the “Gαi1 activation response (Figure 7F)” value (A3AR WT; log [agonist] -5) was 0.9676 and 0.6508 and 0.8035 and the “Gαi1 activation response (Figure 7F)” value (A3AR WT; log [agonist] -6) was 0.8382 and 0.5159 and 0.6976. For the same compound, the “Gαi1 activation response (Figure 7F)” value (A3AR WT; log [agonist] -7) was 0.312 and 0.3966 and 0.3849, the “Gαi1 activation response (Figure 7F)” value (A3AR WT; log [agonist] -8) was 0.0509 and 0.08839 and 0.07483 and the “Gαi1 activation response (Figure 7F)” value (A3AR WT; log [agonist] -9) was 0.1 and 0.05123 and 0.04435. The “log τ” value (A3AR Y15A^1.35) was 0.6 ± 0.3, the “∆∆BRET Emax” value (A3AR Y15A^1.35) was 0.19 ± 0.02 and the “Gαi1 activation response (Figure 7F)” value (A3AR Y15A^1.35; log [agonist] -3) was 0.171 and 0.1858 and 0.1817. The “Gαi1 activation response (Figure 7F)” value (A3AR Y15A^1.35; log [agonist] -4) was 0.1266 and 0.1086 and 0.09084, the “Gαi1 activation response (Figure 7F)” value (A3AR Y15A^1.35; log [agonist] -5) was 0.08727 and 0.0349 and 0.02463 and the “Gαi1 activation response (Figure 7F)” value (A3AR Y15A^1.35; log [agonist] -6) was 0.02891 and 0.02444 and 0.02972. For the same compound, the “Gαi1 activation response (Figure 7F)” value (A3AR Y15A^1.35; log [agonist] -7) was 0.01513 and 0.03836 and 0.02349, the “Gαi1 activation response (Figure 7F)” value (A3AR Y15A^1.35; log [agonist] -8) was 0.0199 and 0.02219 and 0.02387 and the “Gαi1 activation response (Figure 7F)” value (A3AR Y15A^1.35; log [agonist] -9) was 0.02702 and 0.04406 and 0.02415. For the same compound, the “log τ” value (A3AR S73A^2.65) was 1.4 ± 0.07, the “∆∆BRET Emax” value (A3AR S73A^2.65) was 1.49 ± 0.04 and the “log τ” value (A3AR M174A^5.35) was -0.1 ± 0.2. For the same compound, the “∆∆BRET Emax” value (A3AR M174A^5.35) was 1.35 ± 0.01, the “log τ” value (A3AR Y265A^7.36) was 1.4 ± 0.07 and the “∆∆BRET Emax” value (A3AR Y265A^7.36) was 1.25 ± 0.04. For the same compound, the “∆∆BRET Emax” value (A3AR S271A^7.42) was 0.70 ± 0.15.
